According to patent US20090143279A1 (priority 2007, published 2009):
Read-outs that look alike come from different tables or passages of the source.

How the values were obtained:
[1] = tested on: mitochondrial membrane potential; format: cell-based, mouse; settings: for ΔΨm (composite Z-score): normalized score vs mock-treated (DMSO) wells
reactive oxygen species = format: cell-based, mouse; settings: for ROS (composite Z-score): normalized score vs mock-treated (DMSO) wells
OXPHOS gene expression = format: cell-based, mouse; settings: for GE-HTS (composite Z-score): normalized score vs mock-treated (DMSO) wells
nuOXPHOS transcripts = format: cell-based, mouse; settings: for nucOX (composite Z-score): normalized score vs mock-treated (DMSO) wells
mtOXPHOS transcripts = format: cell-based, mouse; settings: for mitoOX (composite Z-score): normalized score vs mock-treated (DMSO) wells
cytochrome c = format: cell-based, mouse; settings: for cyt c (composite Z-score): normalized score vs mock-treated (DMSO) wells
C2C12 myotubes = settings: for Viability (composite Z-score): normalized score vs mock-treated (DMSO) wells
[2] = tested on: cellular dehydrogenase activity; settings: for MTT (composite Z-score): normalized score vs mock-treated (DMSO) wells
[3] = composite Z-score vs mock-treated (DMSO) wells, concentration of each compound in μM
[4] = 20 μM, composite Z-score vs DMSO
[5] = composite Z-score vs mock-treated (DMSO) wells, Conc 20 μM
[6] = composite Z-score vs DMSO, Conc 20 μM
[7] = normalized composite Z-score vs mock-treated (DMSO) wells, Conc 20 μM

O=C(O)c1cc(O)c2c(c1)C(=O)c1cc(O)cc(O)c1C2=O [emodic acid]
ΔΨm (composite Z-score) ([1]; Conc 20 μM): −0.966
ROS (composite Z-score) (reactive oxygen species; Conc 20 μM): 1.403
GE-HTS (composite Z-score) (OXPHOS gene expression; Conc 20 μM): −1.336
nucOX (composite Z-score) (nuOXPHOS transcripts; Conc 20 μM): −1.210
mitoOX (composite Z-score) (mtOXPHOS transcripts; Conc 20 μM): −1.286
cyt c (composite Z-score) (cytochrome c; Conc 20 μM): 0.505
Viability (composite Z-score) (C2C12 myotubes; Conc 20 μM): 0.262
MTT (composite Z-score) ([2]; Conc 20 μM): −0.976

O=C(CC[N+](=O)[O-])OC[C@H]1O[C@@H](O)[C@H](OC(=O)CC[N+](=O)[O-])[C@@H](OC(=O)CC[N+](=O)[O-])[C@@H]1OC(=O)CC[N+](=O)[O-] [endecaphyllin X]
ΔΨm [1, 3]: 0.142
ROS (reactive oxygen species; [3]): −0.292
GE-HTS (OXPHOS gene expression; [3]): −0.660
nucOX (nuOXPHOS transcripts; [3]): −0.566
mitoOX (mtOXPHOS transcripts; [3]): −0.741
cyt c (cytochrome c; [3]): −0.219
Viability (C2C12 myotubes; [3]): 0.158
MTT [2, 3]: −1.007

ClC1=C(Cl)C2(Cl)C3C4CC(C5OC45)C3C1(Cl)C2(Cl)Cl (stereo not drawn) [endrin]
ΔΨm [1, 4]: 0.129
ROS (reactive oxygen species; [4]): 0.770
GE-HTS (OXPHOS gene expression; [4]): −0.680
nucOX (nuOXPHOS transcripts; [4]): −0.738
mitoOX (mtOXPHOS transcripts; [4]): −0.385
cyt c (cytochrome c; [4]): 0.726
Viability (C2C12 myotubes; [4]): 0.522
MTT [2, 4]: −1.710

CCC(C)C(=O)O[C@@H]1C[C@@]2(C)[C@H](c3ccoc3)OC(=O)CC23OC2(C)OC34[C@H](OC(=O)C(C)C)[C@@]3(O)[C@@H](OC(=O)C5(C)OC5C)[C@@]5(C)C[C@]3(O)[C@@](C)([C@H]5CC(=O)OC)C14O2 (stereo partly drawn) [entandrophragmin]
ΔΨm [1, 5]: 0.113
ROS (reactive oxygen species; [5]): 1.351
GE-HTS (OXPHOS gene expression; [5]): 0.467
nucOX (nuOXPHOS transcripts; [5]): 0.149
mitoOX (mtOXPHOS transcripts; [5]): 1.061
cyt c (cytochrome c; [5]): −0.703
Viability (C2C12 myotubes; [5]): 0.672
MTT [2, 5]: −0.737

CN[C@@H](C)[C@H](O)c1ccccc1 [ephedrine]
ΔΨm [1, 6]: −0.834
ROS (reactive oxygen species; [6]): 1.633
GE-HTS (OXPHOS gene expression; [6]): −0.074
nucOX (nuOXPHOS transcripts; [6]): −0.100
mitoOX (mtOXPHOS transcripts; [6]): −0.056
cyt c (cytochrome c; [6]): 0.077
Viability (C2C12 myotubes; [6]): −0.536
MTT [2, 6]: −2.342

C=C[C@@](C)(O)CCC1C(=C)CCC2[C@@](C)(CO)CCC[C@]12C (stereo partly drawn) [epi(13)torulosol]
ΔΨm [1, 7]: 0.022
ROS (reactive oxygen species; [7]): 1.180
GE-HTS (OXPHOS gene expression; [7]): 0.491
nucOX (nuOXPHOS transcripts; [7]): 0.342
mitoOX (mtOXPHOS transcripts; [7]): 0.643
cyt c (cytochrome c; [7]): 0.483
Viability (C2C12 myotubes; [7]): 0.367
MTT [2, 7]: 0.603

COc1ccc([C@H]2Oc3cc(OC)cc(OC)c3C[C@H]2O)cc1 [epiafzelechin trimethyl ether]
ΔΨm [1, 7]: −0.324
ROS (reactive oxygen species; [7]): −0.190
GE-HTS (OXPHOS gene expression; [7]): 0.019
nucOX (nuOXPHOS transcripts; [7]): −0.134
mitoOX (mtOXPHOS transcripts; [7]): 0.350
cyt c (cytochrome c; [7]): 1.099
Viability (C2C12 myotubes; [7]): 0.557
MTT [2, 7]: −0.884

C[C@]12CCC3C(CC[C@H]4C[C@H](O)CC[C@]34C)C1CC[C@@H]2O (stereo partly drawn) [epiandrostanediol]
ΔΨm [1, 6]: −0.156
ROS (reactive oxygen species; [6]): 0.113
GE-HTS (OXPHOS gene expression; [6]): −0.069
nucOX (nuOXPHOS transcripts; [6]): −0.203
mitoOX (mtOXPHOS transcripts; [6]): 0.190
cyt c (cytochrome c; [6]): −0.201
Viability (C2C12 myotubes; [6]): 1.143
MTT [2, 6]: −0.207

Oc1cc(O)c2c(c1)O[C@H](c1ccc(O)c(O)c1)[C@H](O)C2 [epicatechin, reference compound]
ΔΨm [1, 6]: −2.452
ΔΨm [1, 7]: −1.802
ROS (reactive oxygen species; [6]): −0.465
ROS (reactive oxygen species; [7]): −0.199
GE-HTS (OXPHOS gene expression; [6]): 0.431
GE-HTS (OXPHOS gene expression; [7]): −0.754
nucOX (nuOXPHOS transcripts; [6]): 0.310
nucOX (nuOXPHOS transcripts; [7]): −0.773
mitoOX (mtOXPHOS transcripts; [6]): 0.641
mitoOX (mtOXPHOS transcripts; [7]): −0.631
cyt c (cytochrome c): 0.446
cyt c (cytochrome c; [6]): 0.110
cyt c (cytochrome c; [7]): 0.850
Viability (C2C12 myotubes; [6]): −1.380
Viability (C2C12 myotubes; [7]): 0.687
MTT [2, 6]: −1.915
MTT [2, 7]: −1.556

O=C(Oc1cc(O)cc2c1C[C@@H](OC(=O)c1cc(O)c(O)c(O)c1)[C@@H](c1cc(O)c(O)c(O)c1)O2)c1cc(O)c(O)c(O)c1 [epigallocatechin 3,5-digallate]
ΔΨm [1, 7]: −2.135
ROS (reactive oxygen species; [7]): 0.118
GE-HTS (OXPHOS gene expression; [7]): −1.581
nucOX (nuOXPHOS transcripts; [7]): −1.625
mitoOX (mtOXPHOS transcripts; [7]): −1.133
cyt c (cytochrome c; [7]): 1.040
Viability (C2C12 myotubes; [7]): 0.969
MTT [2, 7]: −1.667

C/C1=C\CC(C)(C)/C=C/CC2(C)OC2CC1 (stereo not drawn) [epoxy (1,11)humulene]
ΔΨm (composite Z-score) ([1]; Conc 20 μM): −0.509
ROS (composite Z-score) (reactive oxygen species; Conc 20 μM): −0.355
GE-HTS (composite Z-score) (OXPHOS gene expression; Conc 20 μM): −1.172
nucOX (composite Z-score) (nuOXPHOS transcripts; Conc 20 μM): −1.115
mitoOX (composite Z-score) (mtOXPHOS transcripts; Conc 20 μM): −1.021
cyt c (composite Z-score) (cytochrome c; Conc 20 μM): 0.979
Viability (composite Z-score) (C2C12 myotubes; Conc 20 μM): 1.157
MTT (composite Z-score) ([2]; Conc 20 μM): −0.802

C[C@@H]1C(=O)O[C@H]2[C@H]1CC[C@@]1(C)C=CC(=O)[C@@]3(C)O[C@@]213 [epoxy (4,5alpha)-4,5-dihydrosantonin]
ΔΨm [1, 5]: 0.199
ROS (reactive oxygen species; [5]): −1.367
GE-HTS (OXPHOS gene expression; [5]): −0.736
nucOX (nuOXPHOS transcripts; [5]): −0.614
mitoOX (mtOXPHOS transcripts; [5]): −0.901
cyt c (cytochrome c; [5]): 0.552
Viability (C2C12 myotubes; [5]): 0.133
MTT [2, 5]: 0.041

CC(=O)O[C@@H]1CC2C(C)(C)C(=O)C3OC3[C@]2(C)C2CC[C@@]3(C)[C@H](c4ccoc4)OC(=O)C4OC43[C@@]21C (stereo partly drawn) [epoxygedunin]
ΔΨm (composite Z-score) ([1]; Conc 20 μM): 0.274
ROS (composite Z-score) (reactive oxygen species; Conc 20 μM): 0.409
GE-HTS (composite Z-score) (OXPHOS gene expression; Conc 20 μM): −1.146
nucOX (composite Z-score) (nuOXPHOS transcripts; Conc 20 μM): −1.130
mitoOX (composite Z-score) (mtOXPHOS transcripts; Conc 20 μM): −1.005
cyt c (composite Z-score) (cytochrome c; Conc 20 μM): 0.248
Viability (composite Z-score) (C2C12 myotubes; Conc 20 μM): 0.052
MTT (composite Z-score) ([2]; Conc 20 μM): −1.657

C[C@]12CC[C@H]3C(=CCc4cc(O)ccc43)[C@@H]1CCC2=O [equilin]
ΔΨm [1]: −0.408
ROS (reactive oxygen species): 0.259
GE-HTS (OXPHOS gene expression): −0.626
nucOX (nuOXPHOS transcripts): −0.538
mitoOX (mtOXPHOS transcripts): −0.676
cyt c (cytochrome c): −0.069
Viability (C2C12 myotubes): −0.882
MTT [2]: −2.270

C=C1CC[C@H](O)C/C1=C/C=C1\CCC[C@]2(C)[C@@H]([C@H](C)/C=C/[C@H](C)C(C)C)CC[C@@H]12 [ergocalciferol]
ΔΨm [1, 4]: −0.449
ROS (reactive oxygen species; [4]): 1.541
GE-HTS (OXPHOS gene expression; [4]): 0.661
nucOX (nuOXPHOS transcripts; [4]): 0.723
mitoOX (mtOXPHOS transcripts; [4]): 0.357
cyt c (cytochrome c; [4]): −0.118
Viability (C2C12 myotubes; [4]): 0.372
MTT [2, 4]: −1.658

CC(C)[C@@H](C)C=C[C@@H](C)[C@H]1CC[C@H]2C3=CCC4CC(=O)CC[C@]4(C)[C@H]3CC[C@]12C (stereo partly drawn) [ergosta-7,22-dien-3-one]
ΔΨm [1, 6]: −0.544
ROS (reactive oxygen species; [6]): 0.912
GE-HTS (OXPHOS gene expression; [6]): −0.708
nucOX (nuOXPHOS transcripts; [6]): −0.764
mitoOX (mtOXPHOS transcripts; [6]): −0.415
cyt c (cytochrome c; [6]): 0.221
Viability (C2C12 myotubes; [6]): −0.892
MTT [2, 6]: −2.474

CC(C)[C@@H](C)/C=C/[C@@H](C)[C@H]1CC[C@H]2C3=CC=C4C[C@@H](O)CC[C@]4(C)[C@H]3CC[C@]12C [ergosterol]
ΔΨm [1, 6]: −0.489
ROS (reactive oxygen species; [6]): −0.198
GE-HTS (OXPHOS gene expression; [6]): 0.231
nucOX (nuOXPHOS transcripts; [6]): 0.420
mitoOX (mtOXPHOS transcripts; [6]): −0.240
cyt c (cytochrome c; [6]): 0.386
Viability (C2C12 myotubes; [6]): −0.792
MTT [2, 6]: −1.864

CS(=O)(=O)CCCCN=C=S [erysolin]
ΔΨm (composite Z-score) ([1]; Conc 20 μM): −0.785
ROS (composite Z-score) (reactive oxygen species; Conc 20 μM): −2.871
GE-HTS (composite Z-score) (OXPHOS gene expression; Conc 20 μM): −0.913
nucOX (composite Z-score) (nuOXPHOS transcripts; Conc 20 μM): −0.850
mitoOX (composite Z-score) (mtOXPHOS transcripts; Conc 20 μM): −0.862
cyt c (composite Z-score) (cytochrome c; Conc 20 μM): −1.868
Viability (composite Z-score) (C2C12 myotubes; Conc 20 μM): −4.103
MTT (composite Z-score) ([2]; Conc 20 μM): −3.551
